In US11084781B2, “Diarylureas as CB1 allosteric modulators” (Research Triangle Institute, priority 2017, dated 2021):
Read-outs that look alike come from different tables or passages of the source.

Tests used:
[1] = target: T1, human CB1 receptor (Homo sapiens, UniProt P21554); assay: CB1 calcium mobilization assay, agonist screen; format: cell-based; conditions: 10,000 nM final concentration, mean ± SD
T1 construct: host or cells: CHO-RD-HGA16 cells (CHO cells overexpressing promiscuous Galpha16)

[2] = target: T1, human CB1 receptor; assay: CB1 calcium mobilization assay (antagonist mode, against EC80 of CP55,940); format: cell-based
[3] = target: T2, CB1 receptor (Mus musculus, UniProt P47746); assay: [35S]GTP-γ-S binding assay in mouse cerebellar membranes, CP55,940-stimulated; format: biochemical; conditions: CP55,940 (100 nM) stimulation, mean (95% confidence interval)
T2 construct: from tissue; host or cells: cerebellar membranes of adult male CD-1 mice

[4] = Table 1, against EC80 (100 nM) of CP55,940, mean ± S.E.M., read-out: CB1 calcium assay IC50

T2 sequence (P47746 whole entry): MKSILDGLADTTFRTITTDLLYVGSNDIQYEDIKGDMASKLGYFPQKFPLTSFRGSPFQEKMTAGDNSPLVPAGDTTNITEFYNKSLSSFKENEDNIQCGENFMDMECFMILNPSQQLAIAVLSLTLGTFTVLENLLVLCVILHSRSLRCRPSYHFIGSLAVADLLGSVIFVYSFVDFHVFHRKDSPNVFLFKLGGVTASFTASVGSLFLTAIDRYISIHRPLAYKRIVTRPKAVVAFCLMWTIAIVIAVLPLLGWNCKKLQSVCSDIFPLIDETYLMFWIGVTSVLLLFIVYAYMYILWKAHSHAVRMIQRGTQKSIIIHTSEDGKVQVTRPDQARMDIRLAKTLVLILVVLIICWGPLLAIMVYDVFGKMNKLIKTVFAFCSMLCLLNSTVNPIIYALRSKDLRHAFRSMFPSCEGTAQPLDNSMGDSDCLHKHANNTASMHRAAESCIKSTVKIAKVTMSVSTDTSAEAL
T1 sequence (P21554 whole entry): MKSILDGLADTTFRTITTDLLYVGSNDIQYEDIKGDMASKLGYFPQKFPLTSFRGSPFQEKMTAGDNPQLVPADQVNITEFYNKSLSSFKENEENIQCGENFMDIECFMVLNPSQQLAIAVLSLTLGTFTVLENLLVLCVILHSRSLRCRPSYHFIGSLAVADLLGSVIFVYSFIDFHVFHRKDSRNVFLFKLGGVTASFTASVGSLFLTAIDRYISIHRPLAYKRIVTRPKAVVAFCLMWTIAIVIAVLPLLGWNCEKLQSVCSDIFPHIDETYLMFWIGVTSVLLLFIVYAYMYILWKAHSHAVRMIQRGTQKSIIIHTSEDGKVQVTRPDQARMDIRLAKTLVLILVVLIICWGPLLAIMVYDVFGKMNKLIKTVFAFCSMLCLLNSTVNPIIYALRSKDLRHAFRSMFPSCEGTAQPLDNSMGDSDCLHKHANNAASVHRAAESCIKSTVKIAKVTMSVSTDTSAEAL

CB1 calcium assay Agonist screen (% CP55, 940 Emax) ([1]; Table 1) | IC50 [2, 4] | IC50 [3] | SMILES | further results
2.4 ± 0.2 % CP55, 940 Emax | 231 ± 14 nM | – | COc1cccc(-c2cccc(NC(=O)Nc3ccc(Cl)cc3)c2)n1 [Compound 15, 3-(4-Chlorophenyl)-1-[3-(6-methoxypyridin-2-yl)phenyl]urea] | –
2.9 ± 0.1 % CP55, 940 Emax | – | – | Cc1ccnc(-c2cccc(NC(=O)Nc3ccc(Cl)cc3)c2)c1 [Compound 16, 3-(4-Chlorophenyl)-1-[3-(4-methylpyridin-2-yl)phenyl]urea] | –
23.4 ± 1.9 % CP55, 940 Emax | 133 ± 6 nM | 1320 nM | COc1cc(-c2cccc(NC(=O)Nc3ccc(Cl)cc3)c2)ccn1 [Compound 17, 3-(4-Chlorophenyl)-1-[3-(2-methoxypyridin-4-yl)phenyl]urea] | –
8.8 ± 3.1 % CP55, 940 Emax | 47 ± 13 nM | 2650 nM | O=C(Nc1ccc(Cl)cc1)Nc1cccc(-c2ccccn2)c1 [Compound 18, 3-(4-Chlorophenyl)-1-[3-(pyridin-2-yl)phenyl]urea] | –
34.2 ± 9.3 % CP55, 940 Emax | 244 ± 45 nM | – | O=C(Nc1ccc(Cl)cc1)Nc1cccc(-c2cccnc2)c1 [Compound 19, 3-(4-Chlorophenyl)-1-[3-(pyridin-3-yl)phenyl]urea] | –
2.5 ± 6.2 % CP55, 940 Emax | 290 ± 24 nM | – | O=C(Nc1ccc(Cl)cc1)Nc1cccc(-c2cncnc2)c1 [Compound 21, 3-(4-Chlorophenyl)-1-[3-(pyrimidin-5-yl)phenyl]urea] | –
5.1 ± 0.8 % CP55, 940 Emax | 32 ± 7 nM | 437 nM | O=C(Nc1ccc(Cl)cc1)Nc1cccc(-c2ccccc2)c1 [Compound 22, 3-(4-Chlorophenyl)-1-(3-phenylphenyl)urea] | –
12.5 ± 1.9 % CP55, 940 Emax | 81 ± 10 nM | 827 nM | COc1cccc(-c2cccc(NC(=O)Nc3ccc(Cl)cc3)c2)c1 [Compound 23, 3-(4-Chlorophenyl)-1-[3-(3-methoxyphenyl)phenyl]urea] | –
9.8 ± 1.6 % CP55, 940 Emax | 840 ± 130 nM | – | O=C(Nc1ccc(Cl)cc1)Nc1cccc(-c2cccc(O)c2)c1 [Compound 24, 3-(4-Chlorophenyl)-1-[3-(3-hydroxyphenyl)phenyl]urea] | –
– | – | 456 nM | Cc1cccc(-c2cccc(NC(=O)Nc3ccc(Cl)cc3)c2)c1 [Compound 27, 3-(4-Chlorophenyl)-1-[3-(3-methylphenyl)phenyl]urea] | –
4.4 ± 2.7 % CP55, 940 Emax | 190 ± 45 nM | – | Cc1ccccc1-c1cccc(NC(=O)Nc2ccc(Cl)cc2)c1 [Compound 28, 3-(4-Chlorophenyl)-1-[3-(2-methylphenyl)phenyl]urea] | –
21.3 ± 3.7 % CP55, 940 Emax | 95 ± 9 nM | – | O=C(Nc1ccc(Cl)cc1)Nc1cccc(-c2ccc(Cl)cc2)c1 [Compound 30, 3-(4-Chlorophenyl)-1-[3-(4-chlorophenyl)phenyl]urea] | –
– | 18 ± 1 nM | 353 nM | O=C(Nc1ccc(Cl)cc1)Nc1cccc(-c2ccc(F)cc2F)c1 [Compound 35, 3-(4-Chlorophenyl)-1-[3-(2,4-difluorophenyl)phenyl]urea] | –
4.0 ± 1.0 % CP55, 940 Emax | 591 ± 48 nM | – | CC(C)(C)c1ccc(-c2cccc(NC(=O)Nc3ccc(Cl)cc3)c2)cc1 [Compound 36, 3-(4-Chlorophenyl)-1-[3-(4-tert-butylphenyl)phenyl]urea] | –
10.4 ± 2.1 % CP55, 940 Emax | 460 ± 39 nM | – | CC(C)(C)c1cc(-c2cccc(NC(=O)Nc3ccc(Cl)cc3)c2)cc(C(C)(C)C)c1 [Compound 37, 3-(4-Chlorophenyl)-1-[3-(3,5-di-tert-butylphenyl)phenyl]urea] | –
−0.7 ± 2.4 % CP55, 940 Emax | 1340 ± 370 nM | – | O=C(Nc1ccc(Cl)cc1)Nc1cccc(-c2ccc(-c3ccccc3)cc2)c1 [Compound 39, 3-(4-Chlorophenyl)-1-[3-(4-phenylphenyl)phenyl]urea] | –

CB1 calcium assay Agonist screen (% CP55, 940 Emax) ([1]; Table 1) | IC50 [2, 4] | IC50 [3] | SMILES | further results
12.9 ± 1.7 % CP55, 940 Emax | – | – | O=C(Nc1ccc(Cl)cc1)Nc1cccc(-c2ccc(C(=O)c3ccccc3)cc2)c1 [Compound 40, 3-(4-Chlorophenyl)-1-[3-(4-benzoylphenyl)phenyl]urea] | –
6.9 ± 0.5 % CP55, 940 Emax | – | 1520 nM | O=C(Nc1ccc(Cl)cc1)Nc1cccc(-c2ccc3ccccc3c2)c1 [Compound 42, 3-(4-Chlorophenyl)-1-[3-(naphthalen-2-yl)phenyl]urea] | –
4.5 ± 0.7 % CP55, 940 Emax | – | 1890 nM | O=C(Nc1ccc(Cl)cc1)Nc1cccc(-c2ccc3ccccc3n2)c1 [Compound 43, 3-(4-Chlorophenyl)-1-[3-(quinolin-2-yl)phenyl]urea] | –
−0.1 ± 0.1 % CP55, 940 Emax | 1260 ± 160 nM | – | O=C(Nc1ccc(Cl)cc1)Nc1cccc(-c2ccc3c(c2)Cc2ccccc2-3)c1 [Compound 45, 3-(4-Chlorophenyl)-1-[3-(9H-fluoren-2-yl)phenyl]urea] | –
– | – | – | O=C(Nc1ccc(Cl)cc1)Nc1ccc(-c2ccccc2)cc1 [Compound 59, 3-(4-Chlorophenyl)-1-(4-phenylphenyl)urea] | CB1 calcium assay Agonist screen (% CP55, 940 Emax) ([1]; Table 2): 21 ± 4 % CP55, 940 Emax; IC50 ([2]; Table 2, against EC80 (100 nM) of CP55,940, mean ± S.E.M., read-out: CB1 calcium assay IC50): 66 ± 9 nM
1.1 ± 0 % CP55, 940 Emax | 174 ± 31 nM | – | O=C(Nc1ccc(Cl)cc1)Nc1cccc(N2CCCCC2)c1 [Compound 76, 3-(4-Chlorophenyl)-1-[3-(piperidin-1-yl)phenyl]urea] | –
12.4 ± 1.8 % CP55, 940 Emax | 360 ± 64 nM | – | O=C(Nc1ccc(Cl)cc1)Nc1cccc(N2CCOCC2)c1 [Compound 77, 1-(4-Chlorophenyl)-3-[3-(morpholin-4-yl)phenyl]urea] | –
27.6 ± 2.0 % CP55, 940 Emax | 2880 nM | – | CN1CCN(c2cccc(NC(=O)Nc3ccc(Cl)cc3)c2)CC1 [Compound 79, 1-(4-Chlorophenyl)-3-[3-(4-methylpiperazin-1-yl)phenyl]urea] | –
14.0 ± 0.6 % CP55, 940 Emax | 92 ± 9 nM | – | O=C(Nc1ccc(Cl)cc1)Nc1cccc(N2CCC(F)(F)CC2)c1 [Compound 81, 3-(4-Chlorophenyl)-1-[3-(4,4-difluoropiperidin-1-yl)phenyl]urea] | –
18.6 ± 1.1 % CP55, 940 Emax | 350 ± 37 nM | – | O=C(Nc1ccc(Cl)cc1)Nc1cccc(N2CCCCCC2)c1 [Compound 83, 1-[3-(Azepan-1-yl)phenyl]-3-(4-chlorophenyl)urea] | –
14.5 ± 4.9 % CP55, 940 Emax | 113 ± 19 nM | – | CN(C)c1cccc(NC(=O)Nc2ccc(Cl)cc2)c1 [Compound 85, 1-(4-Chlorophenyl)-3-[3-(dimethylamino)phenyl]urea] | –
20.9 ± 0.2 % CP55, 940 Emax | 297 ± 37 nM | – | CCN(CC)c1cccc(NC(=O)Nc2ccc(Cl)cc2)c1 [Compound 86, 3-(4-Chlorophenyl)-1-[3-(diethylamino)phenyl]urea] | –
27.5 ± 4.5 % CP55, 940 Emax | > 10000 nM | – | O=C(Nc1ccc(Cl)cc1)Nc1cccc(CN2CCCC2)c1 [Compound 90, 3-(4-Chlorophenyl)-1-[3-(pyrrolidin-1-ylmethyl)phenyl]urea] | –
13.6 ± 2.4 % CP55, 940 Emax | 520 ± 36 nM | – | COc1cccc(NC(=O)Nc2ccc(Cl)cc2)c1 [Compound 91, 3-(4-Chlorophenyl)-1-(3-methoxyphenyl)urea] | –
11.7 ± 1.4 % CP55, 940 Emax | 277 ± 36 nM | – | O=C(Nc1ccc(Cl)cc1)Nc1cccc(OC2CCCC2)c1 [Compound 95, 3-(4-Chlorophenyl)-1-[3-(cyclopentyloxy)phenyl]urea] | –

SMILES | CB1 calcium assay Agonist screen (% CP55, 940 Emax) ([1]; Table 1) | IC50 [2, 4] | IC50 [3] | further results
O=C(Nc1ccc(Cl)cc1)Nc1cccc(-c2ccc3c(c2)OCO3)c1 [Compound 26, 1-[3-(2H-1,3-Benzodioxol-5-yl)phenyl]-3-(4-chlorophenyl)urea] | 9.8 ± 3.5 % CP55, 940 Emax | 70 ± 14 nM | 619 nM | –
O=C(Nc1ccc(Cl)cc1)Nc1cccc(-c2cccc([N+](=O)[O-])c2)c1 [Compound 29, 3-(4-Chlorophenyl)-1-[3-(3-nitrophenyl)phenyl]urea] | – | 27 ± 2 nM | 452 nM | –
O=C(Nc1ccc(Cl)cc1)Nc1cccc(-c2c(Cl)cccc2Cl)c1 [Compound 33, 3-(4-Chlorophenyl)-1-[3-(2,6-dichlorophenyl)phenyl]urea] | 17.2 ± 3.1 % CP55, 940 Emax | 338 ± 19 nM | – | –
O=C(Nc1ccc(Cl)cc1)Nc1cccc(-c2ccoc2)c1 [Compound 46, 3-(4-Chlorophenyl)-1-[3-(furan-3-yl)phenyl]urea] | – | 41 ± 9 nM | 440 nM | –
O=C(Nc1ccc(Cl)cc1)Nc1cccc(N2CCCC2)c1 [Compound 78, 1-(4-Chlorophenyl)-3-[3-(pyrrolidin-1-yl)phenyl]urea] | 0.6 ± 0.5 % CP55, 940 Emax | 40 ± 4 nM | – | –
O=C(Nc1ccc(Cl)cc1)Nc1cccc(N2CCC2)c1 [Compound 80, 3-[3-(Azetidin-1-yl)phenyl]-1-(4-chlorophenyl)urea] | – | 35 ± 5 nM | 1380 nM | –
O=C(Nc1ccc(Cl)cc1)Nc1cccc(N2C3CCC2CC3)c1 [Compound 82, 3-(4-Chlorophenyl)-1-{3-[(1S,4S)-7-azabicyclo[2.2.1]heptan-7-yl]phenyl}urea] | 5.5 ± 1.3 % CP55, 940 Emax | – | – | IC50 [2]: 2700 nM
